{
  "source": "patent US20080047904A1",
  "about": "“Treatment for Hydrostatic Testing Water” (priority 2004, published 2008)",
  "key": {"[1]": {"tested_on": "Mysidopsis bahia juveniles", "experiment": "48-hour acute LC50 assay, static renewal", "format": "in vivo", "procedure": "(§1) The test concentrations were prepared daily, and used immediately for test initiation and renewal. The total residual chlorine was measured in the highest concentration tested for each sample. The measured chlorine concentrations were used to calculate the estimated chlorine concentrations at the lower sample dilutions in these tests. Both range finder and definitive assays were conducted.\n(§2) A second set of experiments were conducted to mimic aged treated seawater. This attempted to model water that had been held in a pipeline for 24 hours, and then discharged. The experiments were identical to those described in the preceding paragraph, except that the highest test concentrations were prepared 24 hours before exposure to the test organisms. These same solutions were then used to prepare the 24 hour static renewal concentrations. The residual chlorine concentrations were measured when the test organisms were initially exposed to the toxic insult. These measurement were used to calculate the estimated chlorine concentrations at the lower sample dilutions in these tests, and after the static renewal at 24 hours."}, "[2]": {"tested_on": "Medinia beryllina larvae", "experiment": "48-hour acute LC50 assay, static renewal", "format": "in vivo", "procedure": "as §1, §2"}, "[3]": {"experiment": "Reversion of phosphonate to orthophosphate by oxidizing biocides", "format": "physicochemical", "settings": "10 ppm oxidant (as Cl2) dosed, pH 9.1, 23° C.", "procedure": "The biocides studied consisted of WELLGUARD® 7030, bleach (NaOCl), and activated sodium bromide (NaOCl and NaBr). The WELLGUARD® 7030 and bleach were added directly. Activated sodium bromide was prepared in situ by introducing 20 ppm bromide ion to the stock solution followed by addition of bleach. The phosphonates used in this work consisted of AMP (aminomethylene phosphonic acid), HEDP (hydroxyethylidene diphosphonic acid), and PBTC (phosphonobutanetricarboxylic acid). These materials were commercial samples (Mayoquest 1320, 1500, and 2100, respectively) obtained from Callaway Chemical Co. (Smyrna, Ga.).\nSolutions consisting of 5 ppm scale inhibitor (as active phosphonate) in the presence of 10 ppm oxidant (as Cl2) were prepared as follows. To 900 mL deionized water were added appropriate stock solutions containing phosphonate, alkalinity (NaHCO3), and calcium hardness (CaCl2). The pH was adjusted to 9.1 with 5% aq. NaOH and diluted up to 1 L in a dark amber bottle. A dose of oxidant was added to achieve a residual of 10 ppm. The solutions were then periodically monitored for phosphonate reversion by determining the reversion to orthophosphate (Hach method 490). The oxidant residual was also periodically monitored using the DPD method (Hach method 80). All of this work was performed at room temperature (23° C.). […]"}, "[4]": {"settings": "aged: highest test concentrations prepared 24 hours before exposure"}, "[5]": {"settings": "fresh test solutions, static renewal at 24 hours"}},
  "data": [
    {"smiles": "[Na+].[O-]Cl", "note": "[Bleach, NaOCl]", "values": [
      {"measurement": "48-hour acute LC50", "setting": "[1]; [4]", "result": 0.42, "unit": "ppm as Cl2"},
      {"measurement": "48-hour acute LC50", "setting": "[1]; [5]", "result": 0.34, "unit": "ppm as Cl2"},
      {"measurement": "48-hour acute LC50", "setting": "[2]; [4]", "result": 0.50, "unit": "ppm as Cl2"},
      {"measurement": "48-hour acute LC50", "setting": "[2]; [5]", "result": 0.57, "unit": "ppm as Cl2"},
      {"measurement": "Cl2 (oxidant residual)", "setting": "[3]; 5 ppm AMP, 460 minutes", "result": 9.4, "unit": "ppm"},
      {"measurement": "Cl2 (oxidant residual)", "setting": "[3]; 5 ppm HEDP, 400 minutes", "result": 10.6, "unit": "ppm"}
    ]}
  ]
}
